Laboratory results as given in US20080280817A1, “MODIFIED AMINO ACID FOR THE INHIBITION OF PLATELET AGGREGATION” (NOVARTIS AG, priority 2002, published 2008).

Key:
Type in all cases: cell-based, human
[1] = tested on: platelet rich plasma (PRP); experiment: ADP-induced platelet aggregation in PRP (aggregometer, optical density)
Method: (§1) Freshly drawn venous blood from healthy volunteers is collected into 0.1 vol. […] trisodium citrate. The donors have not taken any medication during two weeks prior to blood collection. PRP is prepared by centrifugation of the freshly drawn blood (150 g, 15 minutes at 22° C.) and the final platelet concentration is standardized at 200 000 cell/μL by dilution in autologous platelet-free plasma, prepared by centrifugation (1200 g, 10 minutes at 22° C.). The supernatant is collected. Samples of PRP are pre-incubated for 1 minute (22° C.) with varying concentrations of 5-CNAC in saline (stored at −20° C.).
(§2) In order to assess the inhibitory effect of 5-CNAC on platelet aggregation, the following studies are performed. Samples of 0.400 mL PRP containing 5-CNAC are prepared as above. To these samples is added 0.005 mL of an aggregation stimulator which is either ADP (Roche Molecular Biochemicals, Mannheim) or collagen (Horm Chemie, Munich). The final concentrations of either the ADP or collagen are as indicated in the “Results” section. Aggregation studies are performed in a Chronolog 4 channel aggregometer (type CH570VS-CH810). The aggregometer automatically calibrates the donor-dependent difference in optical density between platelet-free plasma (0% optical density) and the PRP (100% optical density) of a particular donor. The extent of aggregation is measured by expressing the maximal difference in optical density (independent of the time after the addition of the aggregation stimulator, i.e., either ADP or collagen) and normalized taking the control curves (without 5-CNAC) as an internal standard set at 100%.

[2] = tested on: platelet rich plasma (PRP); experiment: Collagen-stimulated platelet aggregation in PRP (aggregometer, optical density)
Method: as §1, §2

[3] = tested on: platelet rich plasma (PRP); experiment: Addition of 5-CNAC alone to PRP; platelet morphology
Method: as §1
In order to assess the inhibitory effect of 5-CNAC on platelet aggregation, the following studies are performed. Samples of 0.400 mL PRP containing 5-CNAC are prepared as above. To these samples is added 0.005 mL of an aggregation stimulator which is either ADP (Roche Molecular Biochemicals, Mannheim) or collagen (Horm Chemie, Munich). The final concentrations of either the ADP or collagen are as indicated in the “Results” section. […] The extent of aggregation is measured by expressing the maximal difference in optical density (independent of the time after the addition of the aggregation stimulator, i.e., either ADP or collagen) and normalized taking the control curves (without 5-CNAC) as an internal standard set at 100%.

O=C(O)CCCCCCCNC(=O)c1cc(Cl)ccc1O [5-CNAC, N-(5-chlorosalicyloyl)-8-aminocaprylic acid]
inhibition of platelet aggregation at suboptimal ADP stimulation ([1]; 3 μM and 2 μM ADP compared with 5 μM ADP): platelet aggregation is inhibited by lower concentrations of 5-CNAC
concentration at which inhibition of platelet aggregation becomes apparent ([1]; 5 μM ADP (maximal stimulation), PRP from 12 healthy subjects): ≥ 2 µM
phase of the aggregation curve in which inhibition is seen ([1]; all concentrations of ADP tested): evident in the second phase of the aggregation curve, but is not observed in the initial phase
change in cell shape upon ADP addition (increase in optical density) ([1]; in the presence of 5-CNAC): undisturbed
inhibition of secondary aggregation ([1]; later part of the aggregation curve): dose-dependently inhibits the later part of the aggregation curve
concentration at which inhibition is evident ([2]; 1 μg/mL collagen): ≥ 50 µM
concentration showing platelet aggregation inhibition ([2]; 2 μg/mL collagen, one individual): about 1 mM
concentration giving some inhibition of platelet aggregation ([2]; 2.5 μg/mL collagen, PRP of one individual, not at lower concentrations): 200 µM
concentration at which inhibition of platelet aggregation becomes detectable ([2]; 5 μg/mL collagen): about 1 mM
effect on platelets (aggregation) ([2]; 5 μg/mL collagen, 100 μM 5-CNAC): unaffected
phase of the aggregation curve in which inhibition is seen ([2]; collagen-stimulated aggregation): becomes apparent in the second phase of the aggregation curve
triggering of platelet aggregation by the compound alone ([3]; 5-CNAC alone added to PRP, no stimulator): does not trigger platelet aggregation
effect on platelet morphology (swirling of the cells) ([3]; PRP): does not alter platelet morphology
